Structures are written as SMILES.

The first assay deals with T1, hCB1 (Homo sapiens, UniProt P21554).
T1 construct: made in house; host or cells: Sf9 insect cells (baculovirus), P2 membranes
T1 sequence (P21554 whole entry): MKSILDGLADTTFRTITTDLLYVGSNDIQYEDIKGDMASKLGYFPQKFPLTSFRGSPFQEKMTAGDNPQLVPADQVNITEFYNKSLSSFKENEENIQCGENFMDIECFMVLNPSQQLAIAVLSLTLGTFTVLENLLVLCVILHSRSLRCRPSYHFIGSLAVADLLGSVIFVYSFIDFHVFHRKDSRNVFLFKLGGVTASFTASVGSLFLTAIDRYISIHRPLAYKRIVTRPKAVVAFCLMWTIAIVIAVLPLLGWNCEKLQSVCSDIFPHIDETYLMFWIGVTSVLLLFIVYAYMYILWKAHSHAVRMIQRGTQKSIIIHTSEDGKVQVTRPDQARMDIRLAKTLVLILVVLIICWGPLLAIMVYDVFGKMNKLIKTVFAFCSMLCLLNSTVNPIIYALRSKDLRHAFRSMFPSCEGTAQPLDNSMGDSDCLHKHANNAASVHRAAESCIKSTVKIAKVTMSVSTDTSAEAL
Nature of the assay: Agonist-induced GTP binding (GTPγ35S) assay at CB1, Example 8. The assay is classed as biochemical. To be noted: IC50 at CB1, determined as described in Example 8; read-out: IC50. In outline:
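Membranes from Sf9 cells co-expressing hCB1 and heterotrimeric G-protein (10 μg protein) in Tris pH 7.4 buffer with 5 μM GDP. Test compounds (10^−10–10^−5 M) competed against 1 nM CP55,940 with […] GTPγ35S, 60 min at room temperature. Filter-bound radioactivity by scintillation, expressed as percent above basal.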
As for `Cc1cccc(NC(=O)Nc2cccc(OC(F)F)c2)c1` [Compound 369, 1-[3-(difluoromethoxy)phenyl]-3-(3-methylphenyl)urea], the IC50 is under 2000 nM. On the same count and under the same terms, in the case of `CCc1ccc(NC(=O)Nc2ccc(F)cc2)cc1` [Compound 325, 1-(4-ethylphenyl)-3-(4-fluorophenyl)urea] it was under 2000 nM; in that of `CCCc1ccccc1NC(=O)Nc1cccc(OC(F)F)c1` [Compound 578, 1-[3-(difluoromethoxy)phenyl]-3-(2-propylphenyl)urea], under 2000 nM; in that of `CCOC(=O)c1ccc(NC(=O)Nc2cccc(F)c2)cc1` [Compound 475, ethyl 4-({[(3-fluorophenyl)amino]carbonyl}amino)benzoate], under 2000 nM. Take `CCOC(=O)c1ccc(NC(=O)Nc2cccc(CC)c2)cc1` [Compound 497, ethyl 4-({[(3-ethylphenyl)amino]carbonyl}amino)benzoate]: the IC50 is under 2000 nM.

With `CCOC(=O)c1cccc(NC(=O)Nc2ccc(F)cc2)c1` [Compound 644, ethyl 3-({[(4-fluorophenyl)amino]carbonyl}amino)benzoate], the IC50 was under 2000 nM. On to `Cc1ccc(NC(=O)Nc2ccc(N3CCCCC3)cc2)cc1` [Compound 322, 1-(4-methylphenyl)-3-(4-piperidin-1-ylphenyl)urea], for which the IC50 was under 2000 nM.

Consider `CCC(=O)c1ccc(NC(=O)Nc2cccc(C(=O)OC)c2)cc1` [Compound 720, methyl 3-({[(4-propionylphenyl)amino]carbonyl}amino)benzoate], for which the IC50 is under 2000 nM. On to `CCOC(=O)c1ccc(NC(=O)Nc2ccc(COC)cc2)cc1` [Compound 670, ethyl 4-[({[4-(methymethyl)phenyl]amino}carbonyl)amino]benzoate], for which the IC50 is under 2000 nM.

For the compound `Cc1ccc(NC(=O)Nc2ccc(OC(C)C)cc2)cc1C` [Compound 691, 1-(3,4-dimethylphenyl)-3-(4-isopropoxyphenyl)urea], the IC50 was under 2000 nM. Take `COC(=O)c1ccc(NC(=O)Nc2ccc(F)cc2)cc1` [Compound 472, methyl 4-({[(4-fluorophenyl)amino]carbonyl)amino)benzoate]: the IC50 was under 2000 nM. For `CC(C)Oc1ccc(NC(=O)Nc2ccc(Cl)cc2)cc1` [Compound 405, 1-(4-chlorophenyl)-3-(4-isopropoxyphenyl)urea], the IC50 was under 2000 nM.

Take `COCc1ccc(NC(=O)Nc2ccc(C(C)=O)cc2)cc1` [Compound 415, 1-(4-acetylphenyl)-3-[4-(methoxymethyl)phenyl]urea]: the IC50 is under 2000 nM. Regarding `CCOC(=O)c1ccc(NC(=O)Nc2cccc(Cl)c2)cc1` [Compound 499, ethyl 4-({[(3-chlorophenyl)amino]carbonyl}amino)benzoate], the IC50 was under 2000 nM. Same read-out and setting: in the case of `COCc1ccc(NC(=O)Nc2ccc(Cl)cc2)cc1` [Compound 395, 1-(4-chlorophenyl)-3-[4-(methoxymethyl)phenyl]urea] it was under 2000 nM; in that of `CC(C)Oc1ccc(NC(=O)Nc2cc(F)cc(F)c2)cc1` [Compound 709, 1-(3,5-difluorophenyl)-3-(4-isopropoxyphenyl)urea], under 2000 nM. Take `CCCc1ccc(NC(=O)Nc2ccc(C)c(F)c2)cc1` [Compound 655, 1-(3-fluoro-4-methylphenyl)-3-(4-propylphenyl)urea]: the IC50 was under 2000 nM. Same read-out and setting: then `CCc1ccc(NC(=O)Nc2cc(OC)ncn2)cc1` [Compound 642, 1-(4-ethylphenyl)-3-(6-methoxypyrimidin-4-yl)urea], with under 2000 nM; and `CCc1ccc(NC(=O)Nc2ncccc2C)cc1` [Compound 639, 1-(4-ethylphenyl)-3-(3-methylpyridin-2-yl)urea], with under 2000 nM; and `Cc1ccc(NC(=O)Nc2ccc(OC(F)F)cc2)cc1Cl` [Compound 611, 1-(3-chloro-4-methylphenyl)-3-[4-(difluoromethoxy)phenyl]urea], with under 2000 nM. Same read-out and setting: in the case of `O=C(Nc1ccc(Cn2ccnc2)cc1)Nc1ccc(OC(F)F)cc1` [Compound 786, N-[4-(difluoromethoxy)phenyl]-N′-[4-(1H-irnidazol-1-ylmethyl)phenyl]urea] it was under 2000 nM; in that of `CCc1cccc(NC(=O)Nc2ccc(OC(C)C)cc2)c1` [Compound 402, 1-(3-ethylphenyl)-3-(4-isopropoxyphenyl)urea], under 2000 nM; in that of `COc1ccc(NC(=O)Nc2ccc(OCC#N)cc2)cc1` [Compound 589, 1-[4-(cyanomethoxy)phenyl]-3-(4-methoxyphenyl)urea], under 2000 nM. Take `CC(C)c1ccc(NC(=O)Nc2ccc([N+](=O)[O-])cc2)cc1` [Compound 528, 1-(4-isopropylphenyl)-3-(4-nitrophenyl)urea]: the IC50 was under 2000 nM. Turning to `CCc1cccc(NC(=O)Nc2ccc(CC#N)cc2)c1` [Compound 482, 1-[4-(cyanomethyl)phenyl]-3-(3-ethylphenyl)urea], the IC50 was under 2000 nM. In the case of `CCOc1cccc(NC(=O)Nc2ccc(OC(F)(F)F)cc2)c1` [Compound 531, 1-(3-ethoxyphenyl)-3-[4-(trifluoromethoxy)phenyl]urea], the IC50 was under 2000 nM.

For the compound `Cc1cccc(NC(=O)Nc2ccc(OC(F)F)cc2)c1` [Compound 307, N-[4-(difluoromethoxy)phenyl]-N′-(3-methylphenyl)urea], the IC50 is under 2000 nM. Turning to `CCCOc1ccc(NC(=O)Nc2cccc(CC)c2)cc1` [Compound 396, 1-(3-ethylphenyl)-3-(4-propoxyphenyl)urea], the IC50 is under 2000 nM. Take `CCOC(=O)c1ccc(NC(=O)Nc2cccc(OC(F)F)c2)cc1` [Compound 678, ethyl 4-[({[3-(difluoromethoxy)phenyl]amino}carbonyl)amino]benzoate]: the half-inhibitory concentration (IC50) is under 2000 nM. On to `N#CCOc1ccc(NC(=O)Nc2cccc(Cl)c2)cc1` [Compound 490, 1-(3-chlorophenyl)-3-[4-(cyanomethoxy)phenyl]urea], for which the IC50 was under 2000 nM. In the case of `COC(=O)c1cccc(NC(=O)Nc2ccc(C)c(F)c2)c1` [Compound 765, methyl 3-({[(3-fluoro-4-methylphenyl)amino]carbonyl}amino)benzoate], the IC50 was under 2000 nM.

The assay is the same for the next values; noted with them: Table I; IC50 at CB1, GTP binding with 1 nM CP55,940; read-out: IC50.
On to `CCc1ccc(NC(=O)Nc2ccc(C)cc2)cc1` [Compound 42, N-(4-ethylphenyl)-N′-(4-methylphenyl)urea], for which the IC50 is under 2000 nM. Regarding `Cc1nccc(-c2cccc(NC(=O)Nc3ccc(OC(F)F)cc3)c2)n1` [Compound 10, N-[4-(difluoromethoxy)phenyl]-N′-[3-(2-methylpyrimidin-4-yl)phenyl]urea], the IC50 was under 2000 nM.

Still in this assay, the particulars now being: Table II; IC50 at CB1, GTP binding with 1 nM CP55,940; read-out: IC50.
Regarding `O=C(Nc1ccc(OC(F)F)cc1)Nc1ccc(Br)nc1` [Compound 114, N-(6-bromopyridin-3-yl)-N′-[4-(difluoromethoxy)phenyl]urea], the IC50 is under 2000 nM. With `CCc1cccc(NC(=O)Nc2cccc(OC(F)F)c2)c1` [Compound 253, N-[3-(difluoromethoxy)phenyl]-N′-(3-ethylphenyl)urea], the IC50 is under 2000 nM. As for `O=C(Nc1ccc(OC(F)F)cc1)Nc1cccc2cccc(Cl)c12` [Compound 141, N-(8-chloro-1-naphthyl)-N′-[4-(difluoromethoxy)phenyl]urea], the concentration for half-maximal inhibition (IC50) is under 2000 nM. Consider `CCOc1ccc(NC(=O)Nc2cccc(C)c2)cc1` [Compound 158, N-(4-ethoxyphenyl)-N′-(3-methylphenyl)urea], for which the IC50 is under 2000 nM. `O=C(Nc1ccc(OC(F)F)cc1)Nc1cccc(-c2ccccn2)c1` [Compound 62, N-[4-(difluoromethoxy)phenyl]-N′-(3-pyridin-2-ylphenyl)urea]: the IC50 is under 2000 nM. `N#Cc1ccc(NC(=O)Nc2cccc(OC(F)F)c2)cc1` [Compound 283, N-(4-cyanophenyl)-N′-[3-(difluoromethoxy)phenyl]urea]: the IC50 was under 2000 nM. For the compound `CC(C)Oc1ccc(NC(=O)Nc2cccc(C#N)c2)cc1` [Compound 280, N-(3-cyanophenyl)-N′-(4-isopropoxyphenyl)urea], the IC50 was under 2000 nM. The same measure, in the same setting: then `CCCc1ccc(NC(=O)Nc2ccc(C#N)cc2)cc1` [Compound 197, N-(4-cyanophenyl)-N′-(4-propylphenyl)urea], with under 2000 nM; and `CC(=O)c1cccc(NC(=O)Nc2ccc(C(C)C)cc2)c1` [Compound 195, N-(3-acetylphenyl)-N′-(4-isopropylphenyl)urea], with under 2000 nM.

In the case of `Cc1ccc2cc(-c3cccc(NC(=O)Nc4ccc(OC(F)F)cc4)c3)ccc2n1` [Compound 70], the concentration for half-maximal inhibition (IC50) was under 2000 nM. As for `CCOc1cccc(NC(=O)Nc2ccc(Cl)cc2)c1` [Compound 233, N-(4-chlorophenyl)-N′-(3-ethoxyphenyl)urea], the concentration for half-maximal inhibition (IC50) was under 2000 nM.

Turning to `Cc1n[nH]cc1-c1cccc(NC(=O)Nc2ccc(OC(F)F)cc2)c1` [Compound 116, N-[4-(difluoromethoxy)phenyl]-N′-[3-(3-methyl-1H-pyrazol-4-yl)phenyl]urea], the IC50 was under 2000 nM.

In the case of `Cc1ccnc(NC(=O)Nc2ccc(OC(F)F)cc2)c1` [Compound 151, N-[4-(difluoromethoxy)phenyl]-N′-(4-methylpyridin-2-yl)urea], the half-inhibitory concentration (IC50) is under 2000 nM. The same measure, in the same setting: in the case of `Cc1cccc(NC(=O)Nc2cccc(OC(F)F)c2)c1` [Compound 217, N-[3-(difluoromethoxy)phenyl]-N′-(3-methylphenyl)urea] it was under 2000 nM.

In the case of `O=C(Nc1ccc(OC(F)F)cc1)Nc1ccc(Cl)c(Cl)c1` [Compound 94, N-(3,4-dichlorophenyl)-N′-[4-(difluoromethoxy)phenyl]urea], the IC50 was under 2000 nM. Consider `Cc1nc2ccc(NC(=O)Nc3ccc(OC(F)F)cc3)cc2o1` [Compound 130, N-[4-(difluoromethoxy)phenyl]-N′-(2-methyl-1,3-benzoxazol-6-yl)urea], for which the concentration for half-maximal inhibition (IC50) was under 2000 nM.

Values taken from patent US20090239841A1, “Diaryl Ureas as CB1 Antagonists” (priority 2004, published 2009).
